Assay results from article PMC4713475, “In Vivo Differences between Two Optical Isomers of Radioiodinated o-iodo-trans-decalinvesamicol for Use as a Radioligand for the Vesicular Acetylcholine Transporter” (PLoS ONE, 2016).
Each block holds one compound with its values, some of them ahead of it.

What was measured:
[1] = molecular target: T1, VAChT (Rattus norvegicus, UniProt Q62666); assay: VAChT in vitro competitive binding with (-)-[3H]vesamicol in rat brain preparations; settings: rat brain preparations, (-)-[3H]vesamicol, 200 nM DTG to mask sigma receptors, 37°C 60 min; mean ± SD; read-out: Ki VAChT
T1 construct: The rats were sacrificed 60 minutes after injection and their brains collected; from tissue; host or cells: brain of live male Sprague-Dawley rats (in vivo)
T1 sequence (Q62666 1-530): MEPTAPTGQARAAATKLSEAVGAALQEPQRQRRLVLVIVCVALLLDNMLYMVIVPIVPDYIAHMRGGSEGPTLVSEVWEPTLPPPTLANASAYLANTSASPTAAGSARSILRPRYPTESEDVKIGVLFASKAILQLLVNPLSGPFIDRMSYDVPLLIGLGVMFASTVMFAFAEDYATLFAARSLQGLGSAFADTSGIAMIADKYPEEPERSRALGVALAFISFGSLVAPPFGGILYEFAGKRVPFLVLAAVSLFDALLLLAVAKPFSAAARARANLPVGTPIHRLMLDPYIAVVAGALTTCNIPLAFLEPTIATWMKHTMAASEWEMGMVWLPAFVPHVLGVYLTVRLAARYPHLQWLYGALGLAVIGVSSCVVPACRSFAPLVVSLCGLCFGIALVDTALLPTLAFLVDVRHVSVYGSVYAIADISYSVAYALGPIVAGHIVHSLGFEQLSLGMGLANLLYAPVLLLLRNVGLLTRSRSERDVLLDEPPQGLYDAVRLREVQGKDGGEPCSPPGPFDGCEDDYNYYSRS

[2] = In vivo biodistribution study in rats; design: species or system rat; settings: for Biodistribution, Blood / Biodistribution, Cerebellum / Biodistribution, Cortex / Biodistribution, Heart / Biodistribution, Kidney / Biodistribution, Liver / Biodistribution, Lung / Biodistribution, Pancreas / Biodistribution, Rest brain / Biodistribution, Small intestine / Biodistribution, Spleen / Biodistribution, Stomach / Biodistribution, Striatum: n = 4, mean ± SD
Procedure: Three groups of male Sprague-Dawley (SD) rats (n = 4 in each group), weighing 250–300 g, were anesthetized with ether and given an intravenous (i.v.) injection of (-)-[^125I]OIDV or (+)-[^125I]OIDV (0.4 mL, 185 kBq). At 2, 30, and 60 min post-injection, the animals were sacrificed by decapitation under ether anesthesia. The organs of interest were dissected, weighed, and the radioactivity levels were measured in a gamma scintillation counter (AccuFLEX γ7010, Aloka, Tokyo). The degree of accumulation of radiotracer was expressed as a percentage of the injected dose per gram of tissue (% ID/g).
(§1) The results of biodistribution study were statistically analyzed using one-way ANOVA (non-parametric) followed by a Mann Whitney test. Statistical comparisons for the in vivo blocking experiments were performed using one-way ANOVA (non-parametric), Kruskal-Wallis test, and Dunn’s Multiple Comparison test.

[3] = molecular target: T1, VAChT; assay: In vivo blocking study of regional brain uptake; settings: rats, 60 min
Procedure: The rats were sacrificed 60 minutes after injection and their brains collected. The cortex, striatum, cerebellum, and the remainder of the brain were dissected and separated, and their weights and radioactivity measured.
as §1

[4] = molecular target: T1, VAChT; assay: Ex vivo autoradiography of rat brain; format: in vivo; settings: 60 min post-injection
Procedure: Four SD rats were injected intravenously with either (-)-[^125I]OIDV or (+)-[^125I]OIDV (0.4 mL, 1.85 MBq) either alone as a control or with 0.25 μmol (+/–)-vesamicol via the tail vein. At 60 min post-injection, the rats were sacrificed by exsanguination, and perfused via the left ventricle with saline solution (50 mL) followed by 4% paraformaldehyde (pH 7.4, 0.1 M phosphate buffer, 100 mL). Whole brains were removed, frozen in embedding medium at -78°C and cut into 20 μm sections at -25°C using a cryostat microtome. The sections were apposed to an imaging plate (Fujifilm, BAS-IP SR 2025) for eight days. The imaging plates were scanned by a BAS-5000 phosphor image reader (Fujifilm). Ex vivo autoradiograhy of (-)-[^123I]OIDV(0.4 mL, 111 MBq) was performed by the same method of two [^125I]OIDV isomers.

[5] = molecular target: T2, σ-2 receptor (Rattus norvegicus, UniProt Q5U3Y7); assay: σ-2 receptor competitive binding with [3H]DTG in rat liver preparations; settings: read-out: Ki σ-2
T2 construct: Rat liver preparations (about 100 μg protein) were incubated in quadruplicate; from tissue; host or cells: liver of male Sprague-Dawley rats
T2 sequence (Q5U3Y7 1-176): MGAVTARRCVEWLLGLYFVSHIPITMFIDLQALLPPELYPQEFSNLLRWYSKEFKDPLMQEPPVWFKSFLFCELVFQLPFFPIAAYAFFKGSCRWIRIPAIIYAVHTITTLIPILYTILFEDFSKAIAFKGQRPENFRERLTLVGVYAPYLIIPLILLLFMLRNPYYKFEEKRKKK

[6] = molecular target: σ-1 receptor (Rattus norvegicus, UniProt Q9R0C9); assay: σ-1 receptor competitive binding with (+)-[3H]pentazocine in rat cerebrum preparations
[7] = Regional biodistribution of (+)-[3H]-3-PPP in rat's brain; format: in vivo; settings: rats, n = 4, mean ± SD
From the text: S1 Table The regional biodistribution of (+)-[^3H]-3-PPP in rat’s brain.
The values are the mean ± standard deviation (SD) of four rats (n = 4) at each time point.

Chain of σ-1 receptor (Q9R0C9 whole entry): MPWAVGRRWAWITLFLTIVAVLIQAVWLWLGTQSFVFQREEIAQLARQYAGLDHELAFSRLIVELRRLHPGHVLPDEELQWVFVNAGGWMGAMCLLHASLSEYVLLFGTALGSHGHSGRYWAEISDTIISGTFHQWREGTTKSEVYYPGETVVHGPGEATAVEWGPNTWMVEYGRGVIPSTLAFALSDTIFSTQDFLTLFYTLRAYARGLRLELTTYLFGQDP

SMILES: OC1C[C@@H]2CCCC[C@H]2CC1N1CCC(c2ccccc2I)CC1 (single isomer, unassigned; (-)) [(-)-[^125I]OIDV]
Ki [1]: 22.1 nM

SMILES: OC1C[C@@H]2CCCC[C@H]2CC1N1CCC(c2ccccc2[125I])CC1 (single isomer, unassigned; (-)) [(-)-[^125I]OIDV]
striatum distribution relative to (+)-[125I]OIDV ([2]; at 30 min and 60 min post-injection): 1.4–1.6 times
retention of accumulated radioactivity in brain ([2]; i.v.): greater than 60 min
Biodistribution, Blood ([2]; i.v., 2 min post-injection): 0.13 ± 0.01 % ID/g
Biodistribution, Cerebellum ([2]; i.v., 2 min post-injection): 0.53 ± 0.04 % ID/g
Biodistribution, Cortex ([2]; i.v., 2 min post-injection): 0.55 ± 0.10 % ID/g
Biodistribution, Heart ([2]; i.v., 2 min post-injection): 2.34 ± 0.23 % ID/g
Biodistribution, Kidney ([2]; i.v., 2 min post-injection): 2.84 ± 0.63 % ID/g
Biodistribution, Liver ([2]; i.v., 2 min post-injection): 2.07 ± 0.63 % ID/g
Biodistribution, Lung ([2]; i.v., 2 min post-injection): 5.84 ± 0.44 % ID/g
Biodistribution, Pancreas ([2]; i.v., 2 min post-injection): 2.66 ± 0.40 % ID/g
Biodistribution, Rest brain ([2]; i.v., 2 min post-injection): 0.48 ± 0.07 % ID/g
Biodistribution, Small intestine ([2]; i.v., 2 min post-injection): 0.89 ± 0.12 % ID/g
Biodistribution, Spleen ([2]; i.v., 2 min post-injection): 0.94 ± 0.40 % ID/g
Biodistribution, Stomach ([2]; i.v., 2 min post-injection): 0.18 ± 0.09 % ID/g
Biodistribution, Striatum ([2]; i.v., 2 min post-injection): 0.47 ± 0.10 % ID/g
Biodistribution, Blood ([2]; i.v., 30 min post-injection): 0.05 ± 0.01 % ID/g
Biodistribution, Cerebellum ([2]; i.v., 30 min post-injection): 0.55 ± 0.11 % ID/g
Biodistribution, Cortex ([2]; i.v., 30 min post-injection): 0.62 ± 0.10 % ID/g
Biodistribution, Heart ([2]; i.v., 30 min post-injection): 0.44 ± 0.06 % ID/g
Biodistribution, Kidney ([2]; i.v., 30 min post-injection): 2.35 ± 0.38 % ID/g
Biodistribution, Liver ([2]; i.v., 30 min post-injection): 2.60 ± 0.75 % ID/g
Biodistribution, Lung ([2]; i.v., 30 min post-injection): 2.51 ± 0.90 % ID/g
Biodistribution, Pancreas ([2]; i.v., 30 min post-injection): 4.67 ± 0.58 % ID/g
Biodistribution, Rest brain ([2]; i.v., 30 min post-injection): 0.55 ± 0.09 % ID/g
Biodistribution, Small intestine ([2]; i.v., 30 min post-injection): 1.45 ± 0.50 % ID/g
Biodistribution, Spleen ([2]; i.v., 30 min post-injection): 1.37 ± 0.27 % ID/g
Biodistribution, Stomach ([2]; i.v., 30 min post-injection): 0.22 ± 0.23 % ID/g
Biodistribution, Striatum ([2]; i.v., 30 min post-injection): 0.63 ± 0.09 % ID/g
Biodistribution, Blood ([2]; i.v., 60 min post-injection): 0.04 ± 0.01 % ID/g
Biodistribution, Cerebellum ([2]; i.v., 60 min post-injection): 0.41 ± 0.07 % ID/g
Biodistribution, Cortex ([2]; i.v., 60 min post-injection): 0.51 ± 0.06^! % ID/g
Biodistribution, Heart ([2]; i.v., 60 min post-injection): 0.25 ± 0.05 % ID/g
Biodistribution, Kidney ([2]; i.v., 60 min post-injection): 2.21 ± 0.17 % ID/g
Biodistribution, Liver ([2]; i.v., 60 min post-injection): 2.19 ± 0.17 % ID/g
Biodistribution, Lung ([2]; i.v., 60 min post-injection): 1.54 ± 0.41 % ID/g
Biodistribution, Pancreas ([2]; i.v., 60 min post-injection): 4.21 ± 0.20 % ID/g
Biodistribution, Rest brain ([2]; i.v., 60 min post-injection): 0.47 ± 0.06^+ % ID/g
Biodistribution, Small intestine ([2]; i.v., 60 min post-injection): 1.85 ± 0.14 % ID/g
Biodistribution, Spleen ([2]; i.v., 60 min post-injection): 0.91 ± 0.08 % ID/g
Biodistribution, Stomach ([2]; i.v., 60 min post-injection): 0.24 ± 0.22 % ID/g
Biodistribution, Striatum ([2]; i.v., 60 min post-injection): 0.50 ± 0.07^$ % ID/g
time post-injection of highest accumulation in the brain ([2]; i.v., all brain regions): 30 min
regional brain uptake with co-injection of (+)-3-PPP ([3]; 0.25 μmol (+)-3-PPP co-injected i.v., all four brain regions): 72–82 % of control
regional brain uptake with co-injection of (+)-pentazocine ([3]; 0.25 μmol (+)-pentazocine co-injected i.v., all four brain regions): 72–82 % of control
regional brain uptake with co-injection of vesamicol ([3]; 0.25 μmol (+/-)-vesamicol co-injected i.v., all four brain regions): approximately 25 % of control
decrease in brain uptake by vesamicol ([3]; 0.250 μmol vesamicol co-injected): 71–73%
brain accumulation by ex vivo autoradiography with co-injection of vesamicol ([4]; 0.25 μmol vesamicol co-injected): remarkably decreased
regional brain distribution by ex vivo autoradiography ([4]; tracer alone): distributed in characteristically VAChT-rich regions

Ki [5]: 101 ± 18.8 nM
Ki [6]: 316 ± 26.3 nM
SMILES: O[C@H]1C[C@@H]2CCCC[C@H]2C[C@@H]1N1CCC(c2ccccc2I)CC1 [(+)-OIDV, (2S,3S,4aS,8aS)-3-(4-(2-iodophenyl)piperidin-1-yl)decahydronaphthalen-2-ol]

SMILES: CCCN1CCC[C@H](c2cccc(O)c2)C1 [(+)-[^3H]-3-PPP]
Radioactivities, Cerebellum ([7]; 15 min post-injection): 0.53 ± 0.01 %ID/g
Radioactivities, Cerebral cortex ([7]; 15 min post-injection): 0.67 ± 0.02 %ID/g
Radioactivities, Cerebellum ([7]; 30 min post-injection): 0.30 ± 0.03 %ID/g
Radioactivities, Cerebral cortex ([7]; 30 min post-injection): 0.37 ± 0.04 %ID/g
Radioactivities, Cerebellum ([7]; 60 min post-injection): 0.18 ± 0.01 %ID/g
Radioactivities, Cerebral cortex ([7]; 60 min post-injection): 0.18 ± 0.01 %ID/g
